Assay results taken from patent publication US20120121679A1, “VIRICIDAL AND MICROBICIDAL COMPOSITIONS AND USES THEREOF” (University of Georgia Research Foundation, Inc., priority 2009, published 2012).
Like-named read-outs stand apart in the source and are kept apart here.

What was measured:
[1] = test system: S. enteritidis; assay: Reduction of S. enteritidis in water treated with organic acids and SDS; assay type: cell-based, Salmonella enteritidis; details: for S. enteritidis counts: water, 21° C.
[2] = test system: L. monocytogenes; assay type: cell-based, Listeria monocytogenes; details: 21° C.
[3] = test system: Feline Calicivirus (FCV); assay: Inactivation of FCV by levulinic acid plus SDS in solution, plaque assay; details: 21° C., 1 min; sulfate
[4] = test system: Murine norovirus (MNV-1); assay: Inactivation of MNV-1 by levulinic acid plus SDS in solution, plaque assay; details: 21° C., 1 min; sulfate
[5] = test system: MNV-1; details: 1,000 ppm, cited from earlier work
[6] = test system: yeasts and molds; assay: Produce wash in a 4-L tank: yeast and mold counts; details: time not given
[7] = test system: aerobic plate count; assay: Produce wash in a 4-L tank: aerobic plate counts (APC); details: time not given
[8] = test system: S. typhimurium; assay: Produce wash in a 4-L tank: S. typhimurium counts on apples, celery, onions, cantaloupes

Work on CCCCCCCCCCCCOS(=O)(=O)[O-].[Na+] [0.05% SDS, sodium dodecyl sulfate] yielded a S. enteritidis counts ([1]; 0 min) of 7.1 log CFU/ml, a S. enteritidis counts ([1]; 2 min) of 7.0 log CFU/ml and a S. enteritidis counts ([1]; 5 min) of 7.2 log CFU/ml. The S. enteritidis counts ([1]; 10 min) was 7.1 log CFU/ml, the S. enteritidis counts ([1]; 20 min) was 7.2 log CFU/ml and the S. enteritidis counts ([1]; 30 min) was 7.1 log CFU/ml. For the same compound, the “Salmonella reduction in water” value ([1]; within 30 minutes) was “did not reduce Salmonella cell numbers”, the L. monocytogenes counts ([2]; 0 min) was 6.6 ± 0.3 log CFU/ml and the L. monocytogenes counts ([2]; 2 min) was 6.4 ± 0.1 log CFU/ml. It also gave a L. monocytogenes counts ([2]; 5 min) of 6.0 ± 0.1 log CFU/ml, a L. monocytogenes counts ([2]; 10 min) of 5.0 ± 0.3 log CFU/ml and a L. monocytogenes counts ([2]; 20 min) of 3.8 ± 0.2 log CFU/ml. The L. monocytogenes counts ([2]; 30 min) was 3.3 ± 0.1 log CFU/ml, the “Log Reduction PFU/ml (standard deviation), FCV” value [3] was −0.12 (±0.23) log PFU/ml and the “Log Reduction PFU/ml (standard deviation), MNV-1” value [4] was −0.13 (±0.26) log PFU/ml.

For OCl [sodium hypochlorite solution, sodium hypochlorite], the “reduction in MNV-1 infectivity” value ([5]; food residuals present on the surfaces) is listed as “minimal reductions in MNV-1 infectivity” and the “reduction of viable MNV-1” value ([5]; viruses dried on stainless steel surfaces without food residuals) is listed as > 4 log Most Probable Number (MPN)/ml.

In the case of “acidified sodium chlorite [50 ppm acidified sodium chlorite]”, the “reduction of yeast and mold counts on onions” value [6] was less than 0.5 log CFU/onion, the “reduction of APC on onions” value [7] was less than 0.5 log CFU/onion and the “average reduction of S. typhimurium on cantaloupes” value ([8]; 2 min (Example 42)) was 0.19 log CFU per cantaloupe. For the same compound, the “reduction of S. typhimurium on onions” value ([8]; time not given) was less than 0.5 log CFU/onion and the “average S. typhimurium count on cantaloupes” value ([8]; treatment time 2 min (Example 42)) was 3.43 log CFU per cantaloupe.
